Reference: patent US20230048132A1, “CYCLIN-DEPENDENT KINASE INHIBITORS” (SPV THERAPEUTICS INC., priority 2018, published 2023)
Like-named read-outs stand apart in the source and are kept apart here.

Experiments:
Test in all cases: CDK inhibition assay (microfluidic LabChip, IC50 format)
[1] = target: CDK1/B (Homo sapiens, UniProt P06493); assay type: biochemical
[2] = target: T1, CDK2-CYCLINA (Homo sapiens, UniProt P24941); assay type: biochemical; conditions: read-out: CDK2 CyclinA IC50
T1 construct: purchased Millipore

[3] = target: CDK7 CyclinH (Homo sapiens, UniProt P50613); assay type: biochemical
Sequence of CDK7 CyclinH (P50613 whole entry): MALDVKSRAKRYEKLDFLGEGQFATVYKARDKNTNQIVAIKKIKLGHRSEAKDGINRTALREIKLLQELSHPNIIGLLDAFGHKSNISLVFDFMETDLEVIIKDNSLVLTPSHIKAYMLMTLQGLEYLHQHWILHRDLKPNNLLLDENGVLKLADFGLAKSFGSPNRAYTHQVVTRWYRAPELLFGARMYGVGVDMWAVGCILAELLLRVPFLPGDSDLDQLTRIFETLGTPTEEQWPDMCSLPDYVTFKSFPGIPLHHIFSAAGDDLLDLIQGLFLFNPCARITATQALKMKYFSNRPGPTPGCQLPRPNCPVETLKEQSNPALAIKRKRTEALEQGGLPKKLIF
Sequence of CDK7 CyclinH (P51946 whole entry partner): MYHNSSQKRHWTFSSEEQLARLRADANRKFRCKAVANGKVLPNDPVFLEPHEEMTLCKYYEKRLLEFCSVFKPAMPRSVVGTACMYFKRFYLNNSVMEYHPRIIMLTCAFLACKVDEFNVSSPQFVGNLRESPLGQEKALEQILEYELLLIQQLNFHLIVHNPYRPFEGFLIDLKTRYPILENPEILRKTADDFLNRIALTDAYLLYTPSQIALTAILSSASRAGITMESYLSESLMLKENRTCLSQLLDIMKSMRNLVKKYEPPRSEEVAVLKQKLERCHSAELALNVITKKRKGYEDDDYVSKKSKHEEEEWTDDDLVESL
Sequence of CDK7 CyclinH (P51948 whole entry partner): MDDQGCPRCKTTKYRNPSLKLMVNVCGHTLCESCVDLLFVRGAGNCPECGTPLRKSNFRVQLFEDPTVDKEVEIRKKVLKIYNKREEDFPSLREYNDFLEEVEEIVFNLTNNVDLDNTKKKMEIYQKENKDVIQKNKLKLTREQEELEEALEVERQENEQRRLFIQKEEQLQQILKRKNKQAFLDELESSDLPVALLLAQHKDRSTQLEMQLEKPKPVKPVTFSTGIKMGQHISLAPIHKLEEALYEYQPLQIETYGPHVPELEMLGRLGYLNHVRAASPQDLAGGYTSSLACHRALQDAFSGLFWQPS

[4] = target: T2, CDK9-CYCLINT1 (Homo sapiens, UniProt P50750); assay type: biochemical; conditions: read-out: CDK9 CyclinT1 IC50
T2 construct: purchased Carna
T2 sequence (P50750 whole entry): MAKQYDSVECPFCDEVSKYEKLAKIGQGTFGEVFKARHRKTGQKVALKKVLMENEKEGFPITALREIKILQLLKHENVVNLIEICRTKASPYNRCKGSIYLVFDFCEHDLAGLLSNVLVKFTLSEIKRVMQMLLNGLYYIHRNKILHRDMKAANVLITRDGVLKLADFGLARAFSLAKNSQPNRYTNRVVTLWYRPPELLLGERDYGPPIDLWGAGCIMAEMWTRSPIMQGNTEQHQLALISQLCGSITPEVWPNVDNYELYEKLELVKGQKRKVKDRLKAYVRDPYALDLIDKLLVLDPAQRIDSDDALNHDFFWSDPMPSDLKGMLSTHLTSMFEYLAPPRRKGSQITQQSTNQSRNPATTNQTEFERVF
T2 sequence (O60563 whole entry partner): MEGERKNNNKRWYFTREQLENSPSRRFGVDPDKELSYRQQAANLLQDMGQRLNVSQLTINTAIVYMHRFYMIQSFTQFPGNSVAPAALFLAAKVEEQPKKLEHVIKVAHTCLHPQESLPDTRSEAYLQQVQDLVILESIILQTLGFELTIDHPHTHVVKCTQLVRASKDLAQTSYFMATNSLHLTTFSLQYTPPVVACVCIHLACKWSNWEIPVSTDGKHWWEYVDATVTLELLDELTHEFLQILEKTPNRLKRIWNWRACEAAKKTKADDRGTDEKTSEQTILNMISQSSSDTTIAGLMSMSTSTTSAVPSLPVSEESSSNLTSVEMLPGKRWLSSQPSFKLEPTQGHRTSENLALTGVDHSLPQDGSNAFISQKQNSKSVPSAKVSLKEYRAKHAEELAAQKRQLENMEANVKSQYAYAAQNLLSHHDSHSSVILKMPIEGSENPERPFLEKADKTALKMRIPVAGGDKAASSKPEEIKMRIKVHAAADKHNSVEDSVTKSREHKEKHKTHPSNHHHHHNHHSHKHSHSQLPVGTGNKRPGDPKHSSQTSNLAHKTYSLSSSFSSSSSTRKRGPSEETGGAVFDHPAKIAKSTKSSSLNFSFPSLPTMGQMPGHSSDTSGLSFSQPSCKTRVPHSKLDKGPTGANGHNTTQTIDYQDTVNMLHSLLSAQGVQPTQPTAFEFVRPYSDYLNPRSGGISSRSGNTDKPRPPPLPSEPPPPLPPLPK

[5] = target: CDK4-CYCLIND1 (Homo sapiens, UniProt P11802); conditions: a second value in parentheses for some compounds
Sequence of CDK4-CYCLIND1 (P11802 whole entry): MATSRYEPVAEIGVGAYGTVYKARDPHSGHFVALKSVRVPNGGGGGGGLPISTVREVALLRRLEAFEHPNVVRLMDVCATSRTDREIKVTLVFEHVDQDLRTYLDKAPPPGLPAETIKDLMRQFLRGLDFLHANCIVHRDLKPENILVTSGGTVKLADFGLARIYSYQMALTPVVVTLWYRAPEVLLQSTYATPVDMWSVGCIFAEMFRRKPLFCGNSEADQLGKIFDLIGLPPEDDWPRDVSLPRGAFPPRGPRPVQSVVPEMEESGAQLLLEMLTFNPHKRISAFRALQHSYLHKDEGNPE
Sequence of CDK4-CYCLIND1 (P24385 whole entry partner): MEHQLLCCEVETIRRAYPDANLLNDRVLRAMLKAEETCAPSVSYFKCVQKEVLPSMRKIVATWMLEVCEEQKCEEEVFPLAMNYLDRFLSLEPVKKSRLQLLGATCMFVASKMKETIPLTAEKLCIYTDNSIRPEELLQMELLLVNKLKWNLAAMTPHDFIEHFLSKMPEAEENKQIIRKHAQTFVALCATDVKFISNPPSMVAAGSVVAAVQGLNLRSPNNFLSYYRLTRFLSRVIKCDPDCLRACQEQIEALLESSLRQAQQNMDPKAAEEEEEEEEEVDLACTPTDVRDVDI

[6] = target: T3, CDK6-CYCLIND3 (Homo sapiens, UniProt Q00534); assay type: biochemical; conditions: Table 4b, lower part; read-out: CDK6 CyclinD3 IC50
T3 construct: purchased Carna
T3 sequence (Q00534 whole entry): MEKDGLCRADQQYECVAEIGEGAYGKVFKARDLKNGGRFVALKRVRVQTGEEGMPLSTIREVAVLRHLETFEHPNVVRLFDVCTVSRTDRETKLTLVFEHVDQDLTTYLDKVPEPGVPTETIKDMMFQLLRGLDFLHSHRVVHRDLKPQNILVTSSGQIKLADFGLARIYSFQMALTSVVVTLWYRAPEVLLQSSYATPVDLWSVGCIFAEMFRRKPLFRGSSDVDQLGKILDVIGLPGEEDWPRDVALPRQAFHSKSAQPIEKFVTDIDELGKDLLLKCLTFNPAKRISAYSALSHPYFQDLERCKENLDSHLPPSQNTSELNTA
T3 sequence (P30281 whole entry partner): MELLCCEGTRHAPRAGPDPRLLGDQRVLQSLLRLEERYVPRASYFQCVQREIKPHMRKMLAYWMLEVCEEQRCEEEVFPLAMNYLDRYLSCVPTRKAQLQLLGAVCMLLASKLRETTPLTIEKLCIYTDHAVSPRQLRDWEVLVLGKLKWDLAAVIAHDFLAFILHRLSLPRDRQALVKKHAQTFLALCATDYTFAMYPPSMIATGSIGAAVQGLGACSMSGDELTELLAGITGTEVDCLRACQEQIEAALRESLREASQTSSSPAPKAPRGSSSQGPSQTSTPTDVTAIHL

[7] = CDK4 CyclinD1 IC50, Table 4b, lower part

Sequence of CDK1/B (P06493 whole entry, species assumed): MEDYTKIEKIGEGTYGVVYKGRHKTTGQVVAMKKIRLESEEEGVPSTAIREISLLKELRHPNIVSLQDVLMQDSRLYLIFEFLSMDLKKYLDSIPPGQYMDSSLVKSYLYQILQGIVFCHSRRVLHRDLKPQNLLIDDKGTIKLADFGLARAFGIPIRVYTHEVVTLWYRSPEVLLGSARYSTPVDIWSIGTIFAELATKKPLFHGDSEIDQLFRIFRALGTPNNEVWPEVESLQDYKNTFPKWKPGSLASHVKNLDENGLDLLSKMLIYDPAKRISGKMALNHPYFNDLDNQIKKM
Sequence of CDK1/B (P14635 whole entry partner, species assumed): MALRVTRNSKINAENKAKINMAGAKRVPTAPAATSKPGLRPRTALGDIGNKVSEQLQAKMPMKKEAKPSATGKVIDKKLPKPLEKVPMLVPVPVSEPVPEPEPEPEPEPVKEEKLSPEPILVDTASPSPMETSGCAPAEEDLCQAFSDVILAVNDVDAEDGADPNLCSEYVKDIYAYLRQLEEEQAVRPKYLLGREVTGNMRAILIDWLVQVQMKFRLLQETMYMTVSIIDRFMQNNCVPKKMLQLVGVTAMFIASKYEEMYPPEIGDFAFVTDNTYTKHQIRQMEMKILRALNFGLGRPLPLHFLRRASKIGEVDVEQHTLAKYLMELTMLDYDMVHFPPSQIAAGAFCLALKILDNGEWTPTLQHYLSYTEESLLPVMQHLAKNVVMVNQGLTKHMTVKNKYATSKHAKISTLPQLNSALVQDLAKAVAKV

SMILES | IC50 ([1]; Table 4a) [nM] | IC50 ([2]; Table 4a) [nM] | IC50 ([3]; Table 4a) [nM] | IC50 ([4]; Table 4a) [nM] | IC50 ([5]; CDK4 CyclinD1 IC50, Table 4a) [nM] | IC50 ([1]; Table 4b, lower part) [nM] | IC50 ([2]; Table 4b, lower part) [nM] | IC50 ([3]; Table 4b, lower part) [nM] | IC50 ([4]; Table 4b, lower part) [nM] | IC50 [5, 7] [nM] | IC50 [6] [nM]
CN1CCN(c2ccc(Nc3ncc4c(n3)N(C3CCCC3)C(=O)N([C@H]3CCNC3)C4)cc2)CC1 [Example D71, (S)-1-cyclopentyl-7-((4-(4-methylpiperazin-1-yl)phenyl)amino)-3-(pyrrolidin-3-yl)-3,4-dihydropyrimido[4,5-d]pyrimidin-2(1H)-one] | > 10000 | > 10000 | > 10000 | > 10000 | 1960 |  |  |  |  |  | 
CN1CCN(c2ccc(Nc3ncc4c(n3)N(C3CCCC3)C(=O)N([C@@H]3CCNC3)C4)cc2)CC1 [Example D74, (R)-1-cyclopentyl-7-((4-(4-methylpiperazin-1-yl)phenyl)amino)-3-(pyrrolidin-3-yl)-3,4-dihydropyrimido[4,5-d]pyrimidin-2(1H)-one] | > 10000 | > 10000 | > 10000 | > 10000 | 2740 |  |  |  |  |  | 
CN1CCN(c2ccc(Nc3ncc4c(n3)N(C3CCCC3)C(=O)N(c3ccccc3F)C4)cc2F)CC1 [Example D80, 1-cyclopentyl-7-((3-fluoro-4-(4-methylpiperazin-1-yl)phenyl)amino)-3-(2-fluorophenyl)-3,4-dihydropyrimido[4,5-d]pyrimidin-2(1H)-one] | > 10000 | 7590 | > 10000 | > 10000 | 3.43 |  |  |  |  |  | 
O=C1NCC[C@@]12Cc1cnc(N[C@H]3CC[C@H](NC4CCOCC4)CC3)nc1N(C1CCCC1)C2=O [Example D92, (S)-8-cyclopentyl-2-(((1r,4S)-4-((tetrahydro-2H-pyran-4-yl)amino)cyclohexyl)amino)-5,8-dihydro-7H-spiro[pyrido[2,3-d]pyrimidine-6,3′-pyrrolidine]-2′,7-dione] | 219 | 153 | 343 | < 3.2 | 5.56 |  |  |  |  |  | 
O=C1NCC[C@@]12Cc1cnc(N[C@H]3CC[C@H](NC4CCOCC4)CC3)nc1N(C13CC(C1)C3)C2=O [Example D93, (S)-8-(bicyclo[1.1.1]pentan-1-yl)-2-(((1r,4S)-4-((tetrahydro-2H-pyran-4-yl)amino)cyclohexyl)amino)-5,8-dihydro-7H-spiro[pyrido[2,3-d]pyrimidine-6,3′-pyrrolidine]-2′,7-dione] | 1100 | 723 | 1500 | 16.1 | 33.3 |  |  |  |  |  | 
O=C1NCC[C@@]12Cc1cnc(Nc3ccc(N4CCN(CCO)CC4)c(F)c3)nc1N(C13CC(C1)C3)C2=O [Example D99, (S)-8-(bicyclo[1.1.1]pentan-1-yl)-2-((3-fluoro-4-(4-(2-hydroxyethyl)piperazin-1-yl)phenyl)amino)-5,8-dihydro-7H-spiro[pyrido[2,3-d]pyrimidine-6,3′-pyrrolidine]-2′,7-dione] |  |  |  |  |  | 2910 | 1090 | 1240 | 28.1 | 13.3 | 
CN1CCN(C2CCN(c3ccc(Nc4ncc5c(n4)N(C4CCCC4)C(=O)[C@]4(CCNC4=O)C5)cc3F)CC2)CC1 [Example D105, (S)-8-cyclopentyl-2-((3-fluoro-4-(4-(4-methylpiperazin-1-yl)piperidin-1-yl)phenyl)amino)-5,8-dihydro-7H-spiro[pyrido[2,3-d]pyrimidine-6,3′-pyrrolidine]-2′,7-dione] | 172 | 54.5 | 134 | < 3.2 | < 3.2 |  |  |  |  |  | 
CC(C)N1CCC(Nc2ncc3c(n2)N(C2CCCC2)C(=O)[C@]2(CCNC2=O)C3)CC1 [Example D125, (S)-8-cyclopentyl-2-((1-isopropylpiperidin-4-yl)amino)-5,8-dihydro-7H-spiro[pyrido[2,3-d]pyrimidine-6,3′-pyrrolidine]-2′,7-dione] |  |  |  |  |  | 1160 | 1140 | 557 | 20.5 |  | 
C[C@]1(O)CC[C@@H](Nc2ncc3c(n2)N(C2CCCC2)C(=O)[C@]2(CCNC2=O)C3)CC1 [Example D126, (S)-8-cyclopentyl-2-(((1s,4R)-4-hydroxy-4-methylcyclohexyl)amino)-5,8-dihydro-7H-spiro[pyrido[2,3-d]pyrimidine-6,3′-pyrrolidine]-2′,7-dione] |  |  |  |  |  | 2200 | 803 | > 10000 | 25.4 | 22.7 | 
CC(C)c1ccc(Nc2ncc3c(n2)N(C2CCCC2)C(=O)[C@]2(CCNC2=O)C3)cc1F [Example D130, (S)-8-cyclopentyl-2-((3-fluoro-4-isopropylphenyl)amino)-5,8-dihydro-7H-spiro[pyrido[2,3-d]pyrimidine-6,3′-pyrrolidine]-2′,7-dione] |  |  |  |  |  | 1060 | 242 | > 10000 | 12.3 |  | 
CC(C)N1CCN(c2ccc(Nc3ncc4c(n3)N(C35CC(C3)C5)C(=O)[C@]3(CCNC3=O)C4)nc2)CC1 [Example D189, (S)-8-(bicyclo[1.1.1]pentan-1-yl)-2-((5-(4-isopropylpiperazin-1-yl)pyridin-2-yl)amino)-5,8-dihydro-7H-spiro[pyrido[2,3-d]pyrimidine-6,3′-pyrrolidine]-2′,7-dione] |  |  |  |  |  |  | > 100000 | > 100000 | 17700 | 28700 | 41600
CCN1CCN(Cc2ccc(Nc3ncc4c(n3)N(C35CC(C3)C5)C(=O)[C@]3(CCNC3=O)C4)nc2)CC1 [Example D190, (S)-8-(bicyclo[1.1.1]pentan-1-yl)-2-((5-((4-ethylpiperazin-1-yl)methyl)pyridin-2-yl)amino)-5,8-dihydro-7H-spiro[pyrido[2,3-d]pyrimidine-6,3′-pyrrolidine]-2′,7-dione] |  |  |  |  |  |  | > 100000 | > 100000 | 21800 | 11400 | 34200

Further lines, results first:

IC50 ([1]; Table 4a) [nM] | IC50 ([2]; Table 4a) [nM] | IC50 ([3]; Table 4a) [nM] | IC50 ([4]; Table 4a) [nM] | IC50 ([5]; CDK4 CyclinD1 IC50, Table 4a) [nM] | IC50 ([1]; Table 4b, lower part) [nM] | IC50 ([2]; Table 4b, lower part) [nM] | IC50 ([3]; Table 4b, lower part) [nM] | IC50 ([4]; Table 4b, lower part) [nM] | IC50 [5, 7] [nM] | IC50 [6] [nM] | SMILES
 |  |  |  |  | 222 | 56.6 | 111 | < 3.2 | < 3.2 |  | O=C1NCC[C@@]12Cc1cnc(Nc3ccc(N4CCN(CCO)CC4)c(F)c3)nc1N(C1CCCC1)C2=O [Example D97, (S)-8-cyclopentyl-2-((3-fluoro-4-(4-(2-hydroxyethyl)piperazin-1-yl)phenyl)amino)-5,8-dihydro-7H-spiro[pyrido[2,3-d]pyrimidine-6,3′-pyrrolidine]-2′,7-dione]
 |  |  |  |  | 167 | 36.8 | 162 | < 3.2 | < 3.2 |  | CN1CC2(C1)CN(c1ccc(Nc3ncc4c(n3)N(C3CCCC3)C(=O)[C@]3(CCNC3=O)C4)cc1F)C2 [Example D101, (S)-8-cyclopentyl-2-((3-fluoro-4-(6-methyl-2,6-diazaspiro[3.3]heptan-2-yl)phenyl)amino)-5,8-dihydro-7H-spiro[pyrido[2,3-d]pyrimidine-6,3′-pyrrolidine]-2′,7-dione]
 |  |  |  |  | 464 | 126 | 642 | < 3.2 | < 3.2 |  | CC(C)N1CC2(CN(c3ccc(Nc4ncc5c(n4)N(C4CCCC4)C(=O)[C@]4(CCNC4=O)C5)cc3)C2)C1 [Example D102, (S)-8-cyclopentyl-2-((4-(6-isopropyl-2,6-diazaspiro[3.3]heptan-2-yl)phenyl)amino)-5,8-dihydro-7H-spiro[pyrido[2,3-d]pyrimidine-6,3′-pyrrolidine]-2′,7-dione]
 |  |  |  |  | 37.9 | < 3.2 | 1670 | < 3.2 | < 3.2 |  | CS(=O)(=O)c1ccc(Nc2ncc3c(n2)N(C2CCCC2)C(=O)[C@]2(CCNC2=O)C3)cc1 [Example D114, (S)-8-cyclopentyl-2-((4-(methylsulfonyl)phenyl)amino)-5,8-dihydro-7H-spiro[pyrido[2,3-d]pyrimidine-6,3′-pyrrolidine]-2′,7-dione]
 |  |  |  |  | 563 | 135 | > 10000 | 9.03 |  |  | CC(C)c1ccc(Nc2ncc3c(n2)N(C2CCCC2)C(=O)[C@]2(CCNC2=O)C3)cc1 [Example D115, (S)-8-cyclopentyl-2-((4-isopropylphenyl)amino)-5,8-dihydro-7H-spiro[pyrido[2,3-d]pyrimidine-6,3′-pyrrolidine]-2′,7-dione]
 |  |  |  |  | 232 | 31.3 | 3450 | < 3.2 | < 3.2 |  | O=C1NCC[C@@]12Cc1cnc(Nc3ccc(OCCO)cc3)nc1N(C1CCCC1)C2=O [Example D116, (S)-8-cyclopentyl-2-((4-(2-hydroxyethoxy)phenyl)amino)-5,8-dihydro-7H-spiro[pyrido[2,3-d]pyrimidine-6,3′-pyrrolidine]-2′,7-dione]
 |  |  |  |  | 4.46 | < 3.2 | 215 | 3.51 | < 3.2 |  | CS(=O)(=O)N1CCC(Nc2ncc3c(n2)N(C2CCCC2)C(=O)[C@]2(CCNC2=O)C3)CC1 [Example D117, (S)-8-cyclopentyl-2-((1-(methylsulfonyl)piperidin-4-yl)amino)-5,8-dihydro-7H-spiro[pyrido[2,3-d]pyrimidine-6,3′-pyrrolidine]-2′,7-dione]
 |  |  |  |  | 22 | 4.19 | 880 | 19.3 | < 3.2 |  | CS(=O)(=O)N1CCC(Nc2ncc3c(n2)N(C24CC(C2)C4)C(=O)[C@]2(CCNC2=O)C3)CC1 [Example D123, (S)-8-(bicyclo[1.1.1]pentan-1-yl)-2-((1-(methylsulfonyl)piperidin-4-yl)amino)-5,8-dihydro-7H-spiro[pyrido[2,3-d]pyrimidine-6,3′-pyrrolidine]-2′,7-dione]
